Source: ChEMBL document CHEMBL5528029, “Design, synthesis, and biological evaluation of novel discoidin domain receptor inhibitors for the treatment of lung adenocarcinoma and pulmonary fibrosis” (Eur J Med Chem, 2024)
Activity calls are given as the source filed them. The calls are words filed in the database; no cut-off is given here.

How the values were obtained:
[1] = molecular target: T1, Discoidin domain-containing receptor 2 (Homo sapiens) (UniProt Q16832); assay: Inhibition of DDR2 (unknown origin) assessed as remaining activity at 1 uM using fluorescein-poly GAT as substrate in presence of ATP by TR-FRET assay relative to control
T1 sequence (whole entry): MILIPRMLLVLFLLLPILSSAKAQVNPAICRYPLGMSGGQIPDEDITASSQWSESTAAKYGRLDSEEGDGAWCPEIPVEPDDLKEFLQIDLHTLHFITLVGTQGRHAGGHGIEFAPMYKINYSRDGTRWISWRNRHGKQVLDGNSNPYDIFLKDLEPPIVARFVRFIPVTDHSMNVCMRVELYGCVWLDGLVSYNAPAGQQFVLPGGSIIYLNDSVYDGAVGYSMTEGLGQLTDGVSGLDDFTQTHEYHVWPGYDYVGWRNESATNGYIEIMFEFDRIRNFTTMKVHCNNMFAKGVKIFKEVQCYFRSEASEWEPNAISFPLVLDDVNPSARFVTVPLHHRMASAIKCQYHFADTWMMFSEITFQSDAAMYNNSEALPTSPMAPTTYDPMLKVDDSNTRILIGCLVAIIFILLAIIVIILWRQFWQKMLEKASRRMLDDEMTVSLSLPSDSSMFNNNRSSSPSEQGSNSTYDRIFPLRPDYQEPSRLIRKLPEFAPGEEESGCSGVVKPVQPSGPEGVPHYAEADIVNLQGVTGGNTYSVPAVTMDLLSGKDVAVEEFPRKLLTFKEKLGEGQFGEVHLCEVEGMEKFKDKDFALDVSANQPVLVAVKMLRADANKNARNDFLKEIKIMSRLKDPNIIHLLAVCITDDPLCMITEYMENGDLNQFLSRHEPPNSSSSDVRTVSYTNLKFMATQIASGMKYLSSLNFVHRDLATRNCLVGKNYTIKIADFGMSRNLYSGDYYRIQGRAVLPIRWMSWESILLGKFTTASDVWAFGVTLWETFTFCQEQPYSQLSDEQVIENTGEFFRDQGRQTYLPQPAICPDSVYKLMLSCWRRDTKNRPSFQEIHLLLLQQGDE

[2] = molecular target: High affinity nerve growth factor receptor (Homo sapiens) (UniProt P04629); assay: Inhibition of TRK-A (unknown origin) assessed as remaining activity at 1 uM using fluorescein-poly GAT as substrate in presence of ATP by TR-FRET assay relative to control
High affinity nerve growth factor receptor (Homo sapiens), sequence (P04629 33-796 limits assumed): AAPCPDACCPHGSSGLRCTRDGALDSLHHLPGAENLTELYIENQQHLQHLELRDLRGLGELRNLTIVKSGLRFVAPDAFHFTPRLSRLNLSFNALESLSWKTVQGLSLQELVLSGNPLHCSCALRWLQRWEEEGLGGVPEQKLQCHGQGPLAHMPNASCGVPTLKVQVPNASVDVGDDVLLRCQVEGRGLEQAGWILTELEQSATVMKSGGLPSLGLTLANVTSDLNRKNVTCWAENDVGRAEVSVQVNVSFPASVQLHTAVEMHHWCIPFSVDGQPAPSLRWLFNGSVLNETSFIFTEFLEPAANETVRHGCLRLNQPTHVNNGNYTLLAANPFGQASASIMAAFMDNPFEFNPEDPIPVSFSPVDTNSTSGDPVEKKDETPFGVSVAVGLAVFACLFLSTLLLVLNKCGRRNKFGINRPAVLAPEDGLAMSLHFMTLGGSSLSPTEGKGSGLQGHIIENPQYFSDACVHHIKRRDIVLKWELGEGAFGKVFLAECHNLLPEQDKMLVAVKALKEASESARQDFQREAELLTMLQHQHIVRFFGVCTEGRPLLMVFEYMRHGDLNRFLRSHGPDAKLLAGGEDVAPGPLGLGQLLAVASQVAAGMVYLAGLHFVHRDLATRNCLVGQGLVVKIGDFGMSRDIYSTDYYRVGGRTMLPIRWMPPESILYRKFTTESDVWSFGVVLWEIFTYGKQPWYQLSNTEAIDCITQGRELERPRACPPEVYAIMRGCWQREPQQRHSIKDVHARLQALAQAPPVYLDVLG

[3] = molecular target: BDNF/NT-3 growth factors receptor (Homo sapiens) (UniProt Q16620); assay: Inhibition of TRK-B (unknown origin) assessed as remaining activity at 1 uM using fluorescein-poly GAT as substrate in presence of ATP by TR-FRET assay relative to control
BDNF/NT-3 growth factors receptor (Homo sapiens), sequence (Q16620 32-822 limits assumed): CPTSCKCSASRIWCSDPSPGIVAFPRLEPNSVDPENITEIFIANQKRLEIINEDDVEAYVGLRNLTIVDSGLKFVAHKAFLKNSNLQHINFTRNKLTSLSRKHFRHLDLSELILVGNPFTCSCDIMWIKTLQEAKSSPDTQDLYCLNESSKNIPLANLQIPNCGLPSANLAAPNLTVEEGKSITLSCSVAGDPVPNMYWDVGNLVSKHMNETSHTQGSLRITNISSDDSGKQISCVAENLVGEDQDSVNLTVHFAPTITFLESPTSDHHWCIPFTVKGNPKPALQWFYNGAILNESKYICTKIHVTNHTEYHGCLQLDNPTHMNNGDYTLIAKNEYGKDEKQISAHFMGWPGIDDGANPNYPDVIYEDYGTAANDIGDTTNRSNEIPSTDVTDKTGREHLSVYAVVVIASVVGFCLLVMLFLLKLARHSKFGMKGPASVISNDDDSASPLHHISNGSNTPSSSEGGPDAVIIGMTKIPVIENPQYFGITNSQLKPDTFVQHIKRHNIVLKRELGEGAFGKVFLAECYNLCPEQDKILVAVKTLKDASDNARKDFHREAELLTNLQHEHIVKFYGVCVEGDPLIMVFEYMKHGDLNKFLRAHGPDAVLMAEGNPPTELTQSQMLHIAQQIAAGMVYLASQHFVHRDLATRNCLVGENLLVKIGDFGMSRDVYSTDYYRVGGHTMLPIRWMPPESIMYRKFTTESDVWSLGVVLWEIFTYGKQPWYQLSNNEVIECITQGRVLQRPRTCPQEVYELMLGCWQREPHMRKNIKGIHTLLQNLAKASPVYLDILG

[4] = molecular target: NT-3 growth factor receptor (Homo sapiens) (UniProt Q16288); assay: Inhibition of TRK-C (unknown origin) assessed as remaining activity at 1 uM using fluorescein-poly GAT as substrate in presence of ATP by TR-FRET assay relative to control
NT-3 growth factor receptor (Homo sapiens), sequence (Q16288 32-839 limits assumed): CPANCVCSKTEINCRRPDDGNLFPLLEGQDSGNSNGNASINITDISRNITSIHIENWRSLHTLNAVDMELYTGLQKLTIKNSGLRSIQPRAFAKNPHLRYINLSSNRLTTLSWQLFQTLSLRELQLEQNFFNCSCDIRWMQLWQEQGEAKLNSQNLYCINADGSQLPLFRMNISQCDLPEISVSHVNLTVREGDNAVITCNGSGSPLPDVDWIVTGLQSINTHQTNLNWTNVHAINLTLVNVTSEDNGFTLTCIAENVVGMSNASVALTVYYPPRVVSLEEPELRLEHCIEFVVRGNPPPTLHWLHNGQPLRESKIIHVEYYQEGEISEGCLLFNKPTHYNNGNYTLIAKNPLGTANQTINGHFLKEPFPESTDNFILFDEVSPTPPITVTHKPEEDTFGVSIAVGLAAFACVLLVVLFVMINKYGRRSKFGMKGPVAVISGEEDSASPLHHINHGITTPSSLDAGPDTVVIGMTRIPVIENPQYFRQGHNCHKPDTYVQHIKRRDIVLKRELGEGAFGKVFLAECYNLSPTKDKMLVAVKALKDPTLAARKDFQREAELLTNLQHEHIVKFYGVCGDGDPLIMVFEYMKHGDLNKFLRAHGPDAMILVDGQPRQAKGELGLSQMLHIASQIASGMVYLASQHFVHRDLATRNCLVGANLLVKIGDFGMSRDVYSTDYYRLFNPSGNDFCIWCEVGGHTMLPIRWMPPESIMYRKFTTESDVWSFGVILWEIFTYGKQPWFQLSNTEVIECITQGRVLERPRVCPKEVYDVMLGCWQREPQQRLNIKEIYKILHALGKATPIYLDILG

[5] = molecular target: T2, Discoidin domain-containing receptor 2 (Homo sapiens, UniProt Q16832); assay: Inhibition of DDR2 (unknown origin)
T2 sequence (Q16832 whole entry): T1 sequence (whole entry)

A549 [6] = assay: Antiproliferative activity against human A549 cells incubated for 72 hrs by MTT assay; settings: A549, 72 h
[7] = Antiproliferative activity against human SPCA1 cells incubated for 72 hrs by MTT assay; settings: SPCA1, 72 h
NCI-H1975 = assay: Antiproliferative activity against human NCI-H1975 cells incubated for 72 hrs by MTT assay; settings: NCI-H1975, 72 h
NIH3T3 [8] = assay: Inhibition of TGF-beta1 induced mouse NIH3T3 cells activation assessed as reduction in collagen-I accumulation at 5 uM preincubated with TGF-beta1 followed by compound addition by immunofluorescence staining based assay; type: functional, cell-based
A549 [9] = assay: Effect on DDR1 level in human A549 cells at 50 to 200 nM by Western blotting analysis; type: functional, cell-based; settings: dose 50-200 nM
A549 [10] = assay: Effect on ERK1/2 level in human A549 cells at 50 to 200 nM by Western blotting analysis; type: functional, cell-based; settings: dose 50-200 nM
A549 [11] = assay: Effect on AKT1 level in human A549 cells at 50 to 200 nM by Western blotting analysis; type: functional, cell-based; settings: dose 50-200 nM
A549 [12] = assay: Inhibition of epithelial-to-mesenchymal transition in human A549 cells assessed as upregulation of E-cadherin protein expression at 50 to 200 nM by Western blotting analysis; type: functional, cell-based; settings: dose 50-200 nM
A549 [13] = assay: Inhibition of epithelial-to-mesenchymal transition in human A549 cells assessed as downregulation of N-cadherin protein expression at 50 to 200 nM by Western blotting analysis; type: functional, cell-based; settings: dose 50-200 nM
A549 [14] = assay: Antitumor activity against human A549 cells xenografted in SPF BALB/c nude mouse assessed as tumor growth inhibition at 30 mg/kg, ip administered for 14 days; type: functional, organism-based; settings: time 14.0 day
NIH3T3 [15] = assay: Inhibition of TGF-beta1 induced mouse NIH3T3 cells activation assessed as reduction in alpha-SMA level at 5 uM preincubated with TGF-beta1 followed by compound addition by immunofluorescence staining based assay; type: functional, cell-based
Mus musculus [16] = assay: Antifibrotic activity against bleomycin-induced C57BL/6 mouse model of pulmonary fibrosis assessed as increase in animal survival at 30 mg/kg, ip administered once daily for 21 days; type: functional, organism-based; settings: time 21.0 day
A549 [17] = assay: Antiproliferative activity against human A549 cells transfected with DDR1 siRNA incubated for 72 hrs by MTT assay; type: functional, cell-based
[18] = molecular target: Mitogen-activated protein kinase; ERK1/ERK2 (Homo sapiens) (UniProt P27361+P28482); assay: Inhibition of ERK1/2 phosphorylation in human A549 cells at 50 to 200 nM by Western blotting analysis; type: cell-based; settings: dose 50-200 nM
Mitogen-activated protein kinase; ERK1/ERK2 (Homo sapiens), sequence (P27361 whole entry, looked up): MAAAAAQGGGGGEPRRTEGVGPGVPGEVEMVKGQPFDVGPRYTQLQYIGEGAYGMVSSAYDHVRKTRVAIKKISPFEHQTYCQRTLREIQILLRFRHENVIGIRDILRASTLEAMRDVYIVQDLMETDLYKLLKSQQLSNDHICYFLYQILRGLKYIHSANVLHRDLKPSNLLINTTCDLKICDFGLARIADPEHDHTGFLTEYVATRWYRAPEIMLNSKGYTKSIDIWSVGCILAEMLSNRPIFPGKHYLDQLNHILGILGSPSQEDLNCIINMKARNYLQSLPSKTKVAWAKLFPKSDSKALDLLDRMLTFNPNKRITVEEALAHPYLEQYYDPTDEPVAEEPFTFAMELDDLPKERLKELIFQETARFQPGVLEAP
Mitogen-activated protein kinase; ERK1/ERK2 (Homo sapiens), sequence (P28482 whole entry, looked up): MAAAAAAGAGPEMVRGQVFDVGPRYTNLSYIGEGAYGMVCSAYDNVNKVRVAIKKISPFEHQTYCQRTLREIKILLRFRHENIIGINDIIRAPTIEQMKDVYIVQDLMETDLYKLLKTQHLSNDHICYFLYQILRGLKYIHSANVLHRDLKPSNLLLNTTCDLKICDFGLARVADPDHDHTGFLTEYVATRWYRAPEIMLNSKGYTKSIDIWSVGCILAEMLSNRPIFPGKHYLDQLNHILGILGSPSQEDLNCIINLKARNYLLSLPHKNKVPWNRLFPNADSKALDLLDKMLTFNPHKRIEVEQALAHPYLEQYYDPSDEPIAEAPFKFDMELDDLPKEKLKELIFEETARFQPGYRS

[19] = molecular target: RAC-alpha serine/threonine-protein kinase (Homo sapiens) (UniProt P31749); assay: Inhibition of Akt1 phosphorylation in human A549 cells at 50 to 200 nM by Western blotting analysis; type: cell-based; settings: dose 50-200 nM
RAC-alpha serine/threonine-protein kinase (Homo sapiens), sequence (P31749 whole entry): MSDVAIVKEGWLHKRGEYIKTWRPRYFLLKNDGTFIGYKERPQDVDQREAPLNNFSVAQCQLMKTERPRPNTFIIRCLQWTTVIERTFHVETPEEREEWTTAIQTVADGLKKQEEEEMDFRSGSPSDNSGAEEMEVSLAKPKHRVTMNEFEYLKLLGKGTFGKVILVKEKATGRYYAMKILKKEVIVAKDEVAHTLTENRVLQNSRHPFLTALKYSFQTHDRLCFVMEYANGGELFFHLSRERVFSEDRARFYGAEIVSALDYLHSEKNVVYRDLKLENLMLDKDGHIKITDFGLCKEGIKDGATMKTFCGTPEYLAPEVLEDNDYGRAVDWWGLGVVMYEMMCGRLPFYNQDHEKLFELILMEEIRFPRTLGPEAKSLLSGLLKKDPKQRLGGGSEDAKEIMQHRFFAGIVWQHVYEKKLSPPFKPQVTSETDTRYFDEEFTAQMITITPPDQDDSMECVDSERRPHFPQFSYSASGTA

A549 [20] = assay: Inhibition of cell migration in human A549 cells at 50 to 200 nM by transwell assay; type: functional, cell-based; settings: dose 50-200 nM
A549 [21] = assay: Inhibition of epithelial-to-mesenchymal transition in human A549 cells assessed as downregulation of N-cadherin protein expression at 200 nM by laser confocal microscopy analysis; type: functional, cell-based
A549 [22] = assay: Inhibition of epithelial-to-mesenchymal transition in human A549 cells assessed as upregulation of E-cadherin protein expression at 200 nM by laser confocal microscopy analysis; type: functional, cell-based
[23] = Toxicity in SPF BALB/c nude mouse xenografted with human A549 cells assessed as weight loss at 30 mg/kg, ip administered for 14 days; type: organism-based; settings: in vivo, 336 h, time 14 day
A549 [24] = assay: Antitumor activity against human A549 cells xenografted in SPF BALB/c nude mouse assessed as reduction in Ki-67 expression at 30 mg/kg, ip administered for 14 days by immunohistochemistry analysis; type: functional, organism-based; settings: time 14.0 day
A549 [25] = assay: Antitumor activity against human A549 cells xenografted in SPF BALB/c nude mouse assessed as reduction in cell growth ratio at 30 mg/kg, ip administered for 14 days by TUNEL staining based immunohistochemistry analysis; type: functional, organism-based; settings: time 14.0 day
Mus musculus [26] = assay: In vivo inhibition of DDR1 phosphorylation in SPF BALB/c nude mouse xenografted with human A549 cells at 30 mg/kg, ip administered for 14 days; type: functional, organism-based; settings: time 14.0 day
NIH3T3 [27] = assay: Inhibition of TGF-beta1 induced mouse NIH3T3 cells activation assessed as reduction in collagen-I accumulation at 3 to 6 uM preincubated with TGF-beta1 followed by compound addition by immunofluorescence staining based assay; type: functional, cell-based; settings: dose 3-6 µM
NIH3T3 [28] = assay: Inhibition of TGF-beta1 induced mouse NIH3T3 cells activation assessed as reduction in alpha-SMA level at 3 to 6 uM preincubated with TGF-beta1 followed by compound addition by immunofluorescence staining based assay; type: functional, cell-based; settings: dose 3-6 µM
Mus musculus [29] = assay: Antifibrotic activity against bleomycin-induced C57BL/6 mouse model of pulmonary fibrosis assessed as increase in animal survival at 15 mg/kg, ip administered once daily for 21 days; type: functional, organism-based; settings: time 21.0 day
Mus musculus [30] = assay: Antifibrotic activity against bleomycin-induced C57BL/6 mouse model of pulmonary fibrosis assessed as reduction in total cell count in BALF at 30 mg/kg, ip administered once daily for 21 days; type: functional, organism-based; settings: time 21.0 day
Mus musculus [31] = assay: Antifibrotic activity against bleomycin-induced C57BL/6 mouse model of pulmonary fibrosis assessed as reduction in neutrophil count in BALF at 30 mg/kg, ip administered once daily for 21 days; type: functional, organism-based; settings: time 21.0 day
Mus musculus [32] = assay: Antifibrotic activity against bleomycin-induced C57BL/6 mouse model of pulmonary fibrosis assessed as reduction in inflammatory cytokines levels in BALF at 30 mg/kg, ip administered once daily for 21 days; type: functional, organism-based; settings: time 21.0 day
Mus musculus [33] = assay: Antifibrotic activity against bleomycin-induced C57BL/6 mouse model of pulmonary fibrosis assessed as reduction in collagen hyperplasia at 30 mg/kg, ip administered once daily for 21 days; type: functional, organism-based; settings: time 21.0 day
Mus musculus [34] = assay: Antifibrotic activity against bleomycin-induced C57BL/6 mouse model of pulmonary fibrosis assessed as reduction in morphological changes at 30 mg/kg, ip administered once daily for 21 days by H and E staining based assay; type: functional, organism-based; settings: time 21.0 day
Mus musculus [35] = assay: Antifibrotic activity against bleomycin-induced C57BL/6 mouse model of pulmonary fibrosis assessed as reduction in alpha-SMA level in pulmonary tissue at 30 mg/kg, ip administered once daily for 21 days by immunofluorescence staining based assay; type: functional, organism-based; settings: time 21.0 day
Mus musculus [36] = assay: Antifibrotic activity against bleomycin-induced C57BL/6 mouse model of pulmonary fibrosis assessed as reduction in collagen-I level in pulmonary tissue at 30 mg/kg, ip administered once daily for 21 days by immunofluorescence staining based assay; type: functional, organism-based; settings: time 21.0 day

| Compound | Activity [1] | Activity [2] | Activity [3] | Activity [4] | IC50 [5] | IC50 (A549 [6]) | IC50 [7] | IC50 (NCI-H1975) | Activity (A549 [9]) | Activity (A549 [10]) | Activity (A549 [11]) | inhibition (A549 [12]) | inhibition (A549 [13]) | Activity (A549 [14]) | Activity (Mus musculus [16]) | other results |
| --- | --- | --- | --- | --- | --- | --- | --- | --- | --- | --- | --- | --- | --- | --- | --- | --- |
| COc1ccc2c(c1)c(CNC(=O)Nc1ccc(F)cc1F)cn2CC(=O)N1CCCC1 | 50.8% | 74% | 104% | 76.2% | 1330 nM | 6960 nM | 7350 nM | 3720 nM | – | – | – | – | – | – | – | – |
| O=C(NCc1cn(CC(=O)N2CCCCC2)c2ccc(F)cc12)Nc1ccc(F)cc1F | 41.3% | 88.2% | 106% | 83.5% | 1190 nM | 1670 nM | 1730 nM | 3860 nM | – | – | – | – | – | – | – | – |
| Cc1nc(Nc2ncc(C(=O)Nc3c(C)cccc3Cl)s2)cc(N2CCN(CCO)CC2)n1 [DASATINIB ANHYDROUS] | – | – | – | – | – | 2550 nM | 2460 nM | 1260 nM | inactive | inactive | inactive | Active | Active | Active | Active | inhibition (NIH3T3 [8]): Active; inhibition (NIH3T3 [15]): Active |
| CN1CCN(C(=O)Cn2cc(CNC(=O)Nc3ccc(F)cc3F)c3cc(F)ccc32)CC1 | 13.7% | 84.9% | 106% | 78.6% | 126 nM | 1840 nM | 3510 nM | 1870 nM | inactive | inactive | inactive | Active | Active | Active | Active | Activity (A549 [17]): inactive; inhibition [18]: Active; inhibition [19]: Active; inhibition (A549 [20]): Active; inhibition (A549 [21]): Active; inhibition (A549 [22]): Active; Activity [23]: Non-Toxic; Activity (A549 [24]): Active; Activity (A549 [25]): Active; inhibition (Mus musculus [26]): Active; inhibition (NIH3T3 [27]): Active; inhibition (NIH3T3 [28]): Active; Activity (Mus musculus [29]): Active; Activity (Mus musculus [30]): Active; Activity (Mus musculus [31]): Active; Activity (Mus musculus [32]): Active; Activity (Mus musculus [33]): Active; Activity (Mus musculus [34]): Active; Activity (Mus musculus [35]): Active; Activity (Mus musculus [36]): Active |
| O=C(NCc1cn(CC(=O)N2CCOCC2)c2ccc(F)cc12)Nc1ccc(F)cc1F | 53.5% | 93.8% | 72.8% | 82.7% | 450 nM | 3720 nM | 2820 nM | 1980 nM | – | – | – | – | – | – | – | – |
| O=C(NCc1cn(CC(=O)N2CCCC2)c2ccc(F)cc12)Nc1ccc(F)cc1F | 32.5% | 95.7% | 69.5% | 75.2% | 1670 nM | 11200 nM | 10500 nM | 5340 nM | – | – | – | – | – | – | – | – |
